Experimental findings from patent US20260124222A1, “ISOTHIAZOLYLCARBOXAMIDE COMPOUNDS AND THEIR USE IN THERAPY” (HOTSPOT THERAPEUTICS, INC., priority 2022, published 2026) are described below.

SMILES strings stand for the structures. Some results are limits rather than exact numbers.

The target of this assay is T1, Avi-tagged FL MALT-1 (Homo sapiens, UniProt Q9UDY8).
T1 construct: Avi-tagged FL MALT-1 (Pharmaron, stored at −70° C.); Avi-tag; purchased Pharmaron
T1 sequence (Q9UDY8 1-824): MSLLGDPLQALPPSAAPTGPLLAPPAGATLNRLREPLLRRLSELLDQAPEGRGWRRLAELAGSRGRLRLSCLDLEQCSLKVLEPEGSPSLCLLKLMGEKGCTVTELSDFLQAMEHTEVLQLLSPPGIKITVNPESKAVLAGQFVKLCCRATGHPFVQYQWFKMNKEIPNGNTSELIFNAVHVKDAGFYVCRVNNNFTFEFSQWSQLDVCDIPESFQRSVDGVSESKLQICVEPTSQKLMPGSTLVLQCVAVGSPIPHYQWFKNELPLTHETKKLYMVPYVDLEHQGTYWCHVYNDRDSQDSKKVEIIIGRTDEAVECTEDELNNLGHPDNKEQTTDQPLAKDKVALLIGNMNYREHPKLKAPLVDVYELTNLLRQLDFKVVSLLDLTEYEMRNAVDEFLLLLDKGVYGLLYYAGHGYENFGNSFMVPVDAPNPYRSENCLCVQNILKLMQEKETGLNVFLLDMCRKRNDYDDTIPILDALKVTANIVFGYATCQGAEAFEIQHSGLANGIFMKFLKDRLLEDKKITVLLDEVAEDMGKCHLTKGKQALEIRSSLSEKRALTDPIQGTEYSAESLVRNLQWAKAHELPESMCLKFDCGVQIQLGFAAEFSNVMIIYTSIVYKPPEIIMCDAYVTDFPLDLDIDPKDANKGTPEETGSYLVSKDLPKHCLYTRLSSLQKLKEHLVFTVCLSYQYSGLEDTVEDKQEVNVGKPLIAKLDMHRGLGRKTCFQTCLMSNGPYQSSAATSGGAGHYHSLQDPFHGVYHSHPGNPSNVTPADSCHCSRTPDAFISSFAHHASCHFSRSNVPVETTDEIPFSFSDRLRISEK
Briefly: MALT-1 Fluorogenic Peptide Cleavage Assay (MALT1 inhibition assay). The assay is classed as biochemical. The conditions noted are these: Ac-LRSR-AMC peptide substrate; 30 min pre-incubation, 90 min reaction at room temperature; fluorescence. In a few lines:
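Full-length Avi-tagged enzyme preincubated 30 min at room temperature with compound (2% DMSO final) in HEPES pH 6.89 buffer with sodium citrate, TCEP, EDTA and CHAPS. Ac-LRSR-AMC substrate added at Km or 10×Km (working stocks 50 or […] μM); fluorescence (ex 342/em 441 nm) after 90 min; IC50 from sigmoidal fit.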

Consider `CNC(=O)c1ccc(NC(=O)c2snc(-c3ccccc3)c2C2CC2)cc1Cl` [I-23, N-(3-CHLORO-4-(METHYLCARBAMOYL) PHENYL)-4-CYCLOPROPYL-3-PHENYLISOTHIAZOLE-5-CARBOXAMIDE], for which the 50% inhibitory concentration (IC50) (in general, the concentration that gives 50% inhibition) was no more than 400 nM. As for `O=C(Nc1ccnc(C(F)(F)F)c1)c1snc(-c2cncc3ccccc23)c1C1CC1` [I-177, 4-cyclopropyl-3-(isoquinolin-4-yl)-N-(2-(trifluoromethyl)pyridin-4-yl)isothiazole-5-carboxamide], the figure is no more than 400 nM; as for `COc1ncccc1-c1nsc(C(=O)Nc2ccnc(C(F)(F)F)c2)c1C1CC1` [I-163, 4-cyclopropyl-3-(2-methoxypyridin-3-yl)-N-(2-(trifluoromethyl)pyridin-4-yl)isothiazole-5-carboxamide], no more than 400 nM.

The molecule `O=C(Nc1ccnc(C(F)(F)F)c1)c1snc(-c2ccc3cn[nH]c3c2)c1C1CC1` [I-169, 4-cyclopropyl-3-(1H-indazol-6-yl)-N-(2-(trifluoromethyl)pyridin-4-yl)isothiazole-5-carboxamide] came in with an IC50 of no more than 400 nM. With `Cn1ncc2cccc(-c3nsc(C(=O)Nc4cnc(-n5nccn5)c(C#N)c4)c3C3CC3)c21` [I-101] the figure was no more than 400 nM; with `O=C(Nc1ccnc(C(F)(F)F)c1)c1snc(-c2ccc(C(F)F)cc2)c1C1CC1` [I-154, 4-cyclopropyl-3-(4-(difluoromethyl)phenyl)-N-(2-(trifluoromethyl)pyridin-4-yl)isothiazole-5-carboxamide], no more than 400 nM.

In turn, `Cn1ccc2c(-c3nsc(C(=O)Nc4ccnc(C(F)(F)F)c4)c3C3CC3)ccnc21` [I-175, 4-cyclopropyl-3-{1-methylpyrrolo[2,3-b]pyridin-4-yl}-N-[2-(trifluoromethyl)pyridin-4-yl]-1,2-thiazole-5-carboxamide] showed an IC50 of no more than 400 nM. As for `O=C(Nc1ccnc(C(F)(F)F)c1)c1snc(-c2ccc(C(F)(F)F)cc2)c1C1CC1` [I-137, 4-cyclopropyl-3-[4-(trifluoromethyl)phenyl]-N-[2-(trifluoromethyl)pyridin-4-yl]-1,2-thiazole-5-carboxamide], the figure is 400 to 1000 nM.

Molecule `O=C(Nc1cnc(C(=O)N2CC(O)C2)c(Cl)c1)c1snc(-c2cccc3ncsc23)c1C1CC1` [I-117] returned an IC50 of no more than 400 nM. As for `O=C(Nc1ccnc(C(F)(F)F)c1)c1snc(-c2ccc3[nH]ncc3c2)c1C1CC1` [I-166, 4-cyclopropyl-3-(1H-indazol-5-yl)-N-(2-(trifluoromethyl)pyridin-4-yl)isothiazole-5-carboxamide], the figure is no more than 400 nM; as for `O=C(Nc1cnc(-n2nccn2)c(C(F)(F)F)c1)c1snc(-c2ccccc2)c1C1CC1` [I-14, 4-CYCLOPROPYL-N-(5-(TRIFLUOROMETHYL)-6-(2H-1,2,3-TRIAZOL-2-YL)PYRIDIN-3-YL)-3-PHENYLISOTHIAZOLE-5-CARBOXAMIDE], no more than 400 nM; as for `CC(=O)N(C)c1ncc(NC(=O)c2snc(-c3ccccc3)c2C2CC2)cc1C#N` [I-51, N-(5-CYANO-6-(N-METHYLACETAMIDO) PYRIDIN-3-YL)-4-CYCLOPROPYL-3-PHENYLISOTHIAZOLE-5-CARBOXAMIDE], no more than 400 nM. As for `N#Cc1cncc(NC(=O)c2snc(-c3ccccc3)c2C2CC2)c1` [I-30, N-(5-CYANOPYRIDIN-3-YL)-4-CYCLOPROPYL-3-PHENYLISOTHIAZOLE-5-CARBOXAMIDE], the IC50 was no more than 400 nM. As for `O=C(Nc1ccnc(C(F)(F)F)c1)c1snc(-c2cccc3nccn23)c1C1CC1` [I-132, 4-cyclopropyl-3-(imidazo[1,2-a]pyridin-5-yl)-N-(2-(trifluoromethyl)pyridin-4-yl)isothiazole-5-carboxamide], the figure is no more than 400 nM. As for `O=C(Nc1cnc(-n2nccn2)c(Cl)c1)c1snc(-c2ccccc2)c1C1CC1` [I-6, N-(5-CHLORO-6-(2H-1,2,3-TRIAZOL-2-YL) PYRIDIN-3-YL)-4-CYCLOPROPYL-3-PHENYLISOTHIAZOLE-5-CARBOXAMIDE], the figure is no more than 400 nM. As for `CN(CCO)C(=O)c1ccc(NC(=O)c2snc(-c3ccccc3)c2C2CC2)cc1Cl` [I-24, N-(3-CHLORO-4-((2-HYDROXYETHYL) (METHYL)CARBAMOYL)PHENYL)-4-CYCLOPROPYL-3-PHENYLISOTHIAZOLE-5-CARBOXAMIDE], the figure is no more than 400 nM; as for `Cc1cc(NC(=O)c2snc(-c3cccc4ncsc34)c2C2CC2)ccn1` [I-104], no more than 400 nM.

`O=C(Nc1ccnc(C(F)(F)F)c1)c1snc(-c2cccc3ocnc23)c1C1CC1` [I-162, 3-(1,3-benzoxazol-4-yl)-4-cyclopropyl-N-[2-(trifluoromethyl)pyridin-4-yl]-1,2-thiazole-5-carboxamide]: the IC50 is no more than 400 nM.

In the case of `O=C(Nc1cnc(-n2nccn2)c(Cl)c1)c1snc(-c2cccc3[nH]c(=O)ccc23)c1C(F)(F)F` [I-99], the IC50 was no more than 400 nM.

The molecule `N#Cc1cc(NC(=O)c2snc(-c3cccc4ncccc34)c2C2CC2)ccc1C(=O)N1CC(O)C1` [I-180, N-(3-cyano-4-(3-hydroxyazetidine-1-carbonyl)phenyl)-4-cyclopropyl-3-(quinolin-5-yl)isothiazole-5-carboxamide] showed an IC50 of no more than 400 nM.

Consider `COCCN(C)C(=O)c1ccc(NC(=O)c2snc(-c3ccccc3)c2C2CC2)cc1Cl` [I-25, N-(3-CHLORO-4-((2-METHOXYETHYL) (METHYL) CARBAMOYL)PHENYL)-4-CYCLOPROPYL-3-PHENYL-ISOTHIAZOLE-5-CARBOXAMIDE], for which the IC50 was no more than 400 nM. As for `N#Cc1cc(NC(=O)c2snc(-c3ccccc3)c2C(F)(F)F)cnc1-n1nccn1` [I-8, N-(5-CYANO-6-(2H-1,2,3-TRIAZOL-2-YL)PYRIDIN-3-YL)-3-PHENYL-4-(TRIFLUOROMETHYL)ISOTHIAZOLE-5-CARBOXAMIDE], the figure is no more than 400 nM.

For `O=C(Nc1cnc(-n2nccn2)c(Cl)c1)c1snc(-c2cccc3c(=O)[nH]ccc23)c1C(F)(F)F` [I-107], the IC50 was no more than 400 nM. `COc1ccc2c(-c3nsc(C(=O)Nc4cnc(-n5nccn5)c(Cl)c4)c3C(F)(F)F)cccc2n1` [I-105]: the IC50 is no more than 400 nM. With `CC(=O)Nc1cccc(-c2nsc(C(=O)Nc3ccnc(C(F)(F)F)c3)c2C2CC2)c1` [I-141, 4-cyclopropyl-3-(3-acetamidophenyl)-N-[2-(trifluoromethyl)pyridin-4-yl]-1,2-thiazole-5-carboxamide] the figure was 400 to 1000 nM; with `Cn1ncc2cc(NC(=O)c3snc(-c4ccccc4)c3C3CC3)cnc21` [I-47, 4-CYCLOPROPYL-N-(1-METHYL-1H-PYRAZOLO [3,4-B]PYRIDIN-5-YL)-3-PHENYLISOTHIAZOLE-5-CARBOXAMIDE], 400 to 1000 nM. With `Cc1c(-c2ccccc2)nsc1C(=O)Nc1cnc(-n2nccn2)c(Cl)c1` [I-3, N-(5-CHLORO-6-(2H-1,2,3-TRIAZOL-2-YL)PYRIDIN-3-YL)-4-METHYL-3-PHENYLISOTHIAZOLE-5-CARBOXAMIDE], the IC50 is no more than 400 nM. The molecule `O=C(Nc1ccc(C(=O)N2CC(O)C2)c(Cl)c1)c1snc(-c2cccc3ncccc23)c1C1CC1` [I-133, N-(3-chloro-4-(3-hydroxyazetidine-1-carbonyl)phenyl)-4-cyclopropyl-3-(quinolin-5-yl)isothiazole-5-carboxamide] came in with an IC50 of no more than 400 nM. With `O=C(Nc1ccnc(C(F)(F)F)c1)c1snc(-c2cccnc2)c1C1CC1` [I-165, 4-cyclopropyl-3-(pyridin-3-yl)-N-(2-(trifluoromethyl)pyridin-4-yl)isothiazole-5-carboxamide] the figure was no more than 400 nM; with `CN1Cc2cc(NC(=O)c3snc(-c4ccccc4)c3C3CC3)ccc2C1=O` [I-62, 4-CYCLOPROPYL-N-(2-METHYL-1-OXOISOINDOLIN-5-YL)-3-PHENYLISOTHIAZOLE-5-CARBOXAMIDE], greater than 2500 nM; with `Cc1ncc(NC(=O)c2snc(-c3ccccc3)c2C2CC2)cc1Cl` [I-33], no more than 400 nM. Take `O=C(Nc1cnc(-n2nccn2)c(Cl)c1)c1snc(-c2ccccc2)c1I` [I-1, N-(5-CHLORO-6-(2H-1,2,3-TRIAZOL-2-YL)PYRIDIN-3-YL)-4-IODO-3-PHENYLISOTHIAZOLE-5-CARBOXAMIDE]: the IC50 was no more than 400 nM. With `Cn1cc(-c2nsc(C(=O)Nc3ccnc(C(F)(F)F)c3)c2C2CC2)cn1` [I-181, 4-cyclopropyl-3-(1-methyl-1H-pyrazol-4-yl)-N-(2-(trifluoromethyl)pyridin-4-yl)isothiazole-5-carboxamide] the figure was 1000 to 2500 nM; with `Cc1cc(NC(=O)c2snc(-c3cccc4ncoc34)c2C2CC2)cnc1-n1nccn1` [I-113], no more than 400 nM.

As for `O=C(Nc1cnc(-n2nccn2)c(C(F)F)c1)c1snc(-c2ccccc2)c1C1CC1` [I-13, 4-CYCLOPROPYL-N-(5-(DIFLUOROMETHYL)-6-(2H-1,2,3-TRIAZOL-2-YL)PYRIDIN-3-YL)-3-PHENYLISOTHIAZOLE-5-CARBOXAMIDE], the IC50 is no more than 400 nM.
